The source of these data is patent US20140187625A1, “RODENTICIDAL COMPOUND, COMPOSITION INCLUDING SAME AND USE FOR COMBATING RODENT PESTS” (priority 2011, published 2014).

SMILES strings stand for the structures. Read-outs that look alike come from different tables or passages of the source.

The assay has as its target T1, activity with respect to vitamin K (vitamin K epoxide substrate), microsomal liver fractions from sensitive rats (Rattus norvegicus, UniProt Q6TEK4).
T1 construct: with 0.5 to 1 mg of microsomal liver fractions from sensitive rats; from tissue; host or cells: rat liver microsomes (sensitive rats)
T1 sequence (Q6TEK4 1-161): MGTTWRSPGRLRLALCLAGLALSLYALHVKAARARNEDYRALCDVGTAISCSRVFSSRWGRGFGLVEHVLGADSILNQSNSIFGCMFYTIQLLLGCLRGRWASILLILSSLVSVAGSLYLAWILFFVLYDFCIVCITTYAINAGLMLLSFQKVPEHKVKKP
As to the kind of experiment: Inhibition of vitamin K epoxide reduction (activity with respect to vitamin K) in rat liver microsomes, IC50. Type of assay: biochemical. The protocol:
The operating protocol is the following. Incubation is carried out in a 200 mM Hepes buffer (pH 7.4) containing 150 mM KCl in the presence of a reducing agent, dithiothreitol (1 mM): • with 0.5 to 1 mg of microsomal liver fractions from sensitive rats, and the reaction substrate, • with […] of vitamin K epoxide in a final volume of 1 ml.
The mixture is incubated for 30 minutes at 37° C. and the reaction is stopped by addition of 4 ml of a mixture of isopropanol/hexane (1:1).
The reaction mixture is then centrifuged for 10 minutes at 3,000 revolutions per minute.
The organic phase is collected and then evaporated to dryness under nitrogen.
The dry residue is immediately taken up in 200 μl of isopropanol.
The vitamin K is then analyzed. The products are separated by reverse chromatography on a C8 column using a mobile phase composed of methanol and acetic acid under isocratic conditions (1 ml/min) at 45° C. Detection of the product is carried out by MS/MS with an APCI source in positive mode.
The identification criteria for vitamin K are the retention time and the production of fragment 187 from the initial ion 451.
The IC50 values are evaluated by non-linear to linear regression from the equation of non-competitive inhibition:
v=(vmax/(l+(I/Ki)))*(S/(Km+S))
where v represents the initial rate, I the concentration of anticoagulant, Km the Michaelis-Menten constant, S the concentration of substrate (mM), Vmax the maximum rate of reaction and Ki the inhibition constant.

`CCCCCCCCCCc1c(O)c2ccccc2oc1=O` [III]: the IC50 was found to be 0.06 µM.
`CCCCCCCCc1c(O)c2ccccc2oc1=O` [II] returned a half-inhibitory concentration (IC50) of 0.15 µM.
Regarding `CCCCCCCCCCCCc1c(O)c2ccccc2oc1=O` [IV], the midpoint of inhibition, the IC50, lay at 0.05 µM.
On to `CCCCCCCCCCCCCCCCCCCCc1c(O)c2ccccc2oc1=O` [IX, reference compound], for which the concentration for half-maximal inhibition (IC50) (microsomal liver fractions from sensitive rats, vitamin K epoxide substrate, 30 minutes at 37° C., pH 7.4, 1 mM dithiothreitol, read-out: IC50) is above 0.5 µM.
Turning to `CCCCCCc1c(O)c2ccccc2oc1=O` [VIII, reference compound], the 50% inhibitory concentration (IC50) is above 0.2 µM.
For the molecule `CCCCCCCCCCCCCCCCCCc1c(O)c2ccccc2oc1=O` [VII], the 50% inhibitory concentration (IC50) was determined as 0.06 µM.
Still for that read-out and setting: with `CCCCCCCCCCCCCCCCc1c(O)c2ccccc2oc1=O` [VI] the figure was 0.04 µM; with `CCCCCCCCCCCCCCc1c(O)c2ccccc2oc1=O` [V], 0.04 µM.
